From article PMC7717600, “Novel [(N-alkyl-3-indolylmethylene)hydrazono]oxindoles arrest cell cycle and induce cell apoptosis by inhibiting CDK2 and Bcl-2: synthesis, biological evaluation and in silico studies” (Journal of Enzyme Inhibition and Medicinal Chemistry, 2020)
Read-outs that look alike come from different tables or passages of the source.

Key:
[1] = test system: K-562; conditions: for TGI: K-562
[2] = test system: NCI-H226; conditions: for TGI: NCI-H226
[3] = test system: MDA-MB-468; conditions: for TGI: MDA-MB-468
[4] = test system: KM12; conditions: for TGI: KM12
[5] = test system: MDA-MB-435; test: NCI SRB screening; type: cell-based
[6] = test system: HOP-62; conditions: for TGI: HOP-62
[7] = test system: NCI/ADR-RES
[8] = test system: MOLT-4
[9] = test system: UO-31
[10] = test system: ACHN
[11] = test system: SNB-75; conditions: for TGI: SNB-75
[12] = test system: A498; conditions: for TGI: A498
[13] = test system: OVCAR-3; conditions: for TGI: OVCAR-3
[14] = test system: BT-549; conditions: for TGI: BT-549
[15] = test system: SR
[16] = test system: SK-OV-3
[17] = test system: SF-295; conditions: for TGI: SF-295
[18] = test system: NCI-H23; conditions: for TGI: NCI-H23
[19] = test system: SF-268; conditions: for TGI: SF-268
[20] = test system: A-549; test: SRB anti-proliferative assay; type: cell-based; conditions: Homo sapiens, A549; A-549, SRB, mean ± SE of 3
Protocol: Staurosporine, a clinically used antitumor drug, was co-assayed as a reference agent for the experiment.
Examination of the cytotoxic activity for the target conjugates was carried out in accordance with the SRB colorimetric assay protocol, as described previously.
In vitro anti-proliferative activity assay
Cells at a concentration of 0.50 x
Sulfo-Rhodamine-B stain (SRB) assay.
cell to the wall of the plate.
wells were prepared for each individual dose).
Unbound dye was removed by four

[21] = test system: HCT-116; conditions: for TGI: HCT-116
[22] = test system: HL-60(TB); conditions: HL60(TB)
[23] = SK-OV-3, listed as D - 795311 / 1

## CCCn1cc(C=NN=C2C(=O)Nc3ccc(C)cc32)c2ccccc21 [Compound 8a]
[1]
  TGI: 20.5 µM
[1]; K-562, 10 μM
  GI %: 83%
[1]; K-562, 1.00E-5 Molar
  Growth Percent: 17.61%
[1]; listed as D - 795311 / 1
  TGI: 2.05E-5 Molar
[2]
  TGI: 20.6 µM
[2]; NCI-H226, 1.00E-5 Molar
  Growth Percent: 92.04%
[2]; listed as D - 795311 / 1
  TGI: 2.06E-5 Molar
[3]
  TGI: 5.78 µM
[3]; MDA-MB-468, 10 μM
  GI %: 75%
[3]; MDA-MB-468, 1.00E-5 Molar
  Growth Percent: 25.19%
[3]; listed as D - 795311 / 1
  TGI: 5.78E-6 Molar
[4]
  TGI: 19.7 µM
[4]; KM12, 10 μM
  GI %: 40%
[4]; KM12, 1.00E-5 Molar
  Growth Percent: 59.92%
[4]; listed as D - 795311 / 1
  TGI: 1.97E-5 Molar
[5]; Homo sapiens, MDA-MB-435
  GI50: 1.5 µM
[5]; MDA-MB-435
  TGI: 2.96 µM
[5]; MDA-MB-435, 10 μM
  GI %: 127%
[5]; MDA-MB-435, 1.00E-5 Molar
  Growth Percent: -26.64%
[5]; MDA-MB-435, listed as D - 795311 / 1
  TGI: 2.96E-6 Molar
[6]
  TGI: 25.0 µM
[6]; HOP-62, 10 μM
  GI %: 25%
[6]; HOP-62, 1.00E-5 Molar
  Growth Percent: 75.35%
[6]; listed as D - 795311 / 1
  TGI: 2.50E-5 Molar
[7]
  TGI: 89.90 µM
[7]; 10 μM
  GI %: 24%
[7]; 1.00E-5 Molar
  Growth Percent: 76.32%
[7]; listed as D - 795311 / 1
  TGI: 8.99E-5 Molar
[8]; MOLT-4
  GI50: 0.68 µM
  TGI: 4.54 µM
[8]; MOLT-4, 10 μM
  GI %: 110%
[8]; MOLT-4, 1.00E-5 Molar
  Growth Percent: -9.90%
[8]; MOLT-4, listed as D - 795311 / 1
  TGI: 4.54E-6 Molar
[9]; UO-31, 10 μM
  GI %: 40%
[9]; UO-31, 1.00E-5 Molar
  Growth Percent: 60.00%
[9]; UO-31, listed as D - 795311 / 1
  TGI: 6.18E-5 Molar
[10]
  TGI: >100 µM
[10]; 10 μM
  GI %: 45%
[10]; 1.00E-5 Molar
  Growth Percent: 55.74%
[10]; listed as D - 795311 / 1
  TGI: > 1.00E-4 Molar
[11]
  TGI: 46.0 µM
[11]; SNB-75, 10 μM
  GI %: 15%
[11]; SNB-75, 1.00E-5 Molar
  Growth Percent: 85.63%
[11]; listed as D - 795311 / 1
  TGI: 4.60E-5 Molar
[12]
  TGI: 7.50 µM
[12]; A498, 10 μM
  GI %: 43%
[12]; A498, 1.00E-5 Molar
  Growth Percent: 57.21%
[12]; listed as D - 795311 / 1
  TGI: 7.50E-6 Molar
[13]
  TGI: 5.11 µM
[13]; OVCAR-3, 10 μM
  GI %: 98%
[13]; OVCAR-3, 1.00E-5 Molar
  Growth Percent: 2.10%
[13]; listed as D - 795311 / 1
  TGI: 5.11E-6 Molar
[14]
  TGI: 6.33 µM
[14]; BT-549, 10 μM
  GI %: 37%
[14]; BT-549, 1.00E-5 Molar
  Growth Percent: 63.53%
[14]; listed as D - 795311 / 1
  TGI: 6.33E-6 Molar
[15]
  GI50: 0.52 µM
  TGI: 8.72 µM
[15]; 10 μM
  GI %: 89%
[15]; 1.00E-5 Molar
  Growth Percent: 11.60%
[15]; listed as D - 795311 / 1
  TGI: 8.72E-6 Molar
[16]; SK-OV-3
  TGI: 67.10 µM
[16]; SK-OV-3, 10 μM
  GI %: 12%
[16]; SK-OV-3, 1.00E-5 Molar
  Growth Percent: 88.36%
[16]; [23]
  GI50: 11.7 µM
  TGI: 6.71E-5 Molar
[17]
  TGI: 96.6 µM
[17]; SF-295, 10 μM
  GI %: 29%
[17]; SF-295, 1.00E-5 Molar
  Growth Percent: 71.12%
[17]; listed as D - 795311 / 1
  TGI: 9.66E-5 Molar
[18]
  TGI: 38.2 µM
[18]; NCI-H23, 10 μM
  GI %: 52%
[18]; NCI-H23, 1.00E-5 Molar
  Growth Percent: 48.03%
[18]; listed as D - 795311 / 1
  TGI: 3.82E-5 Molar
[19]
  TGI: 28.0 µM
[19]; SF-268, 10 μM
  GI %: 54%
[19]; SF-268, 1.00E-5 Molar
  Growth Percent: 46.59%
[19]; listed as D - 795311 / 1
  TGI: 2.80E-5 Molar
[20]
  IC50: 7.3 ± 0.42 µM
[21]
  TGI: 4.17 µM
[21]; HCT-116, 10 μM
  GI %: 60%
[21]; HCT-116, 1.00E-5 Molar
  Growth Percent: 39.85%
[21]; listed as D - 795311 / 1
  TGI: 4.17E-6 Molar
[21]; human, 48 h
  CC50: 9.96 µM
[22]
  TGI: 4.80 µM
